Experimental data taken from US7030145B2, “Pyridinyl derivatives for the treatment of depression” (Bristol-Myers Squibb Company, priority 2003, dated 2006).
pKi: −log10 of the molar value.

How the values were obtained:
[1] = molecular target: T1, cloned human CRF-R1 receptors (Homo sapiens, UniProt P34998); assay: CRF-R1 receptor binding assay (inhibition of 125I-ovine-CRF binding to cell membranes); parameters: key to activity (Ki class in the CRF assays): a: Ki≦100 nM; b: 100 nM<Ki≦500 nM; c: 500 nM<Ki≦5,000 nM; activity reported in percent inhibition at 10 μM; conditions: membranes of 293EBNA cells transfected with hCRFR1, class d = reported as percent inhibition at 10 μM, figures not given; for pKi: read-out: activity (Ki class in the CRF assays)
T1 construct: the coding region was amplifies by PCR from start to stop codons; expressed in transfected cells; membranes
T1 sequence (P34998 24-415): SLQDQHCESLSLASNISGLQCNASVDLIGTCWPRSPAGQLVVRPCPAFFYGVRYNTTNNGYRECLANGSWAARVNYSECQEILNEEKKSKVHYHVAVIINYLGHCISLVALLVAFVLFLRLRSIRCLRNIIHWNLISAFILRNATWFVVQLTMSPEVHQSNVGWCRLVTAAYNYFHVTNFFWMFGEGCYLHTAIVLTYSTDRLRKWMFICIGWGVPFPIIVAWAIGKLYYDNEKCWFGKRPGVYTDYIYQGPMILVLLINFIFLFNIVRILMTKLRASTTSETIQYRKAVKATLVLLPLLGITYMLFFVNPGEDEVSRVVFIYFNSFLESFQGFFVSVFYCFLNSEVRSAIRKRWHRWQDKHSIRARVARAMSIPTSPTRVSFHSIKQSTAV
Excerpt: The following is a description of the isolation of cell membranes containing cloned human CRF-R1 receptors for use in a standard binding assay as well as a description of the assay itself.
Messenger RNA was isolated from human hippocampus. […]. The mRNA was reverse transcribed using oligo (dt) 12–18 and the coding region was amplifies by PCR from start to stop codons. The resulting PCR fragment was cloned into the EcoRV site of pGEMV, from whence the insert was reclaimed using XhoI+XbaI and cloned into the XhoI+XbaI sites of vector pm3 as (which contains a CMV promoter, the SV′t′ splice and early poly A signals, an Eptein-Barr viral origin of replication, and a hygromycin selectable marker). The resulting expression vector, called phchCRFR was transfected in 293EBNA cells and cells retaining the episome were selected in the presence of […] hygromycin. Cells surviving 4 weeks of selection in hygromycin were pooled, adapted to growth in suspension and used to generate membranes for the binding assay described below. Individual aliquots containing approximately 1×10^8 of the suspended cells were then centrifuged to form a pellet and frozen. For the binding assay a frozen pellet described above containing 293EBNA cells transfected with hCRFR1 receptors is homogenized in 10 mL of ice cold tissue buffer (50 mM HEPES buffer pH 7.0, containing 10 MM MgCl2, 2 mM EGTA, 1 μg/mL apotinin, 1 μg/mL leupeptin and 1 μg/mL pepstatin). The homoginate is centrifuged at 40,000×g for 12 min and the resulting pellet rehomogenized in 10 mL of tissue buffer. After another centrifugation at 40,000×g for 12 min, the pellet is resuspended to a protein concentration of 360 μg/mL to be used in the assay.
Binding assays are performed in 96 well plates; each well having a 300 μL capacity. To each well is added 50 μL of test drug dilutions (final concentration of drugs range from 10^−10–10^−5 M), 100 μL of ^125I-ovine-CRF (^125I-o-CRF) (final concentration 150 pM) and 150 μL of the cell homoginate described above. Plates are then allowed to incubate at room temperature for 2 hours before filtering the incubate over GF/F filters (presoaked with 0.3% polyethyleneimine) using an appropriate cell harvester. Filters are rinsed 2 times with ice cold assay buffer before removing individual filters and assessing them for radioactivity on a gamma counter.
Curves of the inhibition of ^125I-o-CRF binding to cell membranes at various dilutions of test drug are analyzed by the iterative curve fitting program LIGAND [P. J. Munson and D. Rodbard, Anal. Biochem., 107:220 (1980), which provides Ki values for inhibition which are then used to assess biological activity. […]
Messenger RNA was isolated from human hippocampus. The mRNA was isolated from human hippocampus. The mRNA was reverse transcribed using oligo (dt) 12–18 and the coding region was amplifies by PCR from start to stop codons. The resulting PCR fragment was cloned into the EcoRV site of pGEMV, from whence the insert was reclaimed using XhoI+XbaI and cloned into the XhoI+XbaI sites of vector pm3 as (which contains a CMV promoter, the SV′t′ splice and early poly A signals, an Eptein-Barr viral origin of replication, and a hygromycin selectable marker). The resulting expression vector, called phchCRFR was transfected in 293EBNA cells and cells retaining the episome were selected in the presence of […] hygromycin. Cells surviving 4 weeks of selection in hygromycin were pooled, adapted to growth in suspension and used to generate membranes for the binding assay described below. […]
A frozen pellet described above containing 293EBNA cells transfected with hCRFR1 receptors or the rat frontal cortex tissue dissected from frozen rat brains was prepared as the source of membranes expressing CRF1 receptors used in binding assays. […]

pKi [1] | melting point [°C] | activity (Ki class in the CRF assays) [1] | Compound
≥ 7.00 | 124 to 126 |  | COc1cccc(COc2ccc(S(=O)(=O)c3ccc(C)nc3Nc3c(C)cc(C)cc3C)cc2)c1OC [Example 32, {3-[4-(2,3-Dimethoxybenzyloxy)-benzenesulfonyl]-6-methylpyridin-2-yl}-(2,4,6-trimethylphenyl)-amine]
≥ 7.00 | 155 to 158 |  | Cc1cc(C)c(Nc2nc(C)ccc2S(=O)(=O)c2ccc(OCc3cccc(C#N)c3)cc2)c(C)c1 [Example 24, 3-{4-[6-Methyl-2-(2,4,6-trimethylphenylamino)-pyridine-3-sulfonyl]-phenoxymethyl}-benzonitrile]
6.30 to 7.00 | 110 to 112 |  | CCc1ccc(S(=O)(=O)c2ccc(C)nc2Nc2ccc(OC)cc2Cl)cc1 [Example 69, (2-Chloro-4-methoxyphenyl)-[3-(4-ethylbenzenesulfonyl)-6-methylpyridin-2-yl]-amine]
5.30 to 6.30 | 116 to 118 |  | CCOC(=O)COc1ccc(S(=O)(=O)c2ccc(C)nc2Nc2c(C)cc(C)cc2C)cc1 [Example 17, {4-[6-Methyl-2-(2,4,6-trimethylphenylamino)-pyridine-3-sulfonyl]-phenoxy}-acetic acid ethyl ester]
6.30 to 7.00 | 132 to 134 |  | CC(=O)OCc1ccc(S(=O)(=O)c2ccc(C)nc2Nc2c(C)cc(C)cc2C)cc1 [Example 55, Acetic acid 4-[6-methyl-2-(2,4,6-trimethylphenylamino)-pyridine-3-sulfonyl]-benzyl ester]
5.30 to 6.30 | 226 to 228 |  | Cc1cc(C)c(Nc2nc(C)ccc2S(=O)(=O)c2ccc(O)cc2)c(C)c1 [Example 10, 4-[6-Methyl-2-(2,4,6-trimethylphenylamino)-pyridine-3-sulfonyl]-phenol]
≥ 7.00 | 208 to 210 |  | Cc1cc(C)c(Nc2nc(C)ccc2S(=O)(=O)c2ccc(OCc3ccccc3C#N)cc2)c(C)c1 [Example 28, 2-{4-[6-Methyl-2-(2,4,6-trimethylphenylamino)-pyridine-3-sulfonyl]-phenoxymethyl}-benzonitrile]
 | 178 to 180 | d | COc1ccccc1COc1ccc(S(=O)(=O)c2ccc(C)nc2Nc2ccc(Cl)cc2C#N)cc1 [Example 8, 5-Chloro-2-{3-[4-(2-methoxybenzyloxy)-benzenesulfonyl]-6-methylpyridin-2-ylamino}-benzonitrile]
6.30 to 7.00 | 196 to 197 |  | Cc1cc(C)c(Nc2nc(C)ccc2S(=O)(=O)c2cccc(O)c2)c(C)c1 [Example 57, 3-[6-Methyl-2-(2,4,6-trimethylphenylamino)-pyridine-3-sulfonyl]-phenol]
≥ 7.00 | 132 to 134 |  | Cc1cc(C)c(Nc2nc(C)ccc2S(=O)(=O)c2ccc(OCc3c(F)cccc3[N+](=O)[O-])cc2)c(C)c1 [Example 34, {3-[4-(2-Fluoro-6-nitrobenzyloxy)-benzenesulfonyl]-6-methyl-pyridin-2-yl}-(2,4,6-trimethylphenyl)-amine]
≥ 7.00 | 140 to 141 |  | Cc1cc(C)c(Nc2nc(C)ccc2S(=O)(=O)c2ccc(Br)cc2)c(C)c1 [Example 46, [3-(4-Bromobenzenesulfonyl)-6-methylpyridin-2-yl]-(2,4,6-trimethylphenyl)-amine]
 | 70 to 72 | d | COc1ccc(Nc2nc(C)ccc2S(=O)(=O)c2ccc(OCc3ccccc3OC)cc2)c(C)c1 [Example 1, {3-[4-(2-Methoxybenzyloxy)-benzenesulfonyl]-6-methylpyridin-2-yl}-(4-methoxy-2-methylphenyl)-amine]
≥ 7.00 | 153 to 155 |  | Cc1cc(C)c(Nc2nc(C)ccc2S(=O)(=O)c2ccc(OCc3ccccc3[N+](=O)[O-])cc2)c(C)c1 [Example 29, {6-Methyl-3-[4-(2-nitrobenzyloxy)-benzenesulfonyl]-pyridin-2-yl}-(2,4,6-trimethylphenyl)-amine]
6.30 to 7.00 | 182 to 184 |  | Cc1cc(C)c(Nc2nc(C)ccc2S(=O)(=O)c2ccc(OCc3ccccn3)cc2)c(C)c1 [Example 19, {6-Methyl-3-[4-(pyridin-2-ylmethoxy)-benzenesulfonyl]-pyridin-2-yl}-(2,4,6-trimethylphenyl)-amine]
≥ 7.00 | 136 to 138 |  | Cc1cc(C)c(Nc2nc(C)ccc2S(=O)(=O)c2ccc(OCc3cccc(F)c3F)cc2)c(C)c1 [Example 33, {3-[4-(2,3-Difluorobenzyloxy)-benzenesulfonyl]-6-methylpyridin-2-yl}-(2,4,6-trimethylphenyl)-amine]
≥ 7.00 | 128 to 130 |  | COc1ccc(OC)c(COc2ccc(S(=O)(=O)c3ccc(C)nc3Nc3c(C)cc(C)cc3C)cc2)c1 [Example 31, {3-[4-(2,5-Dimethoxybenzyloxy)-benzenesulfonyl]-6-methyl-pyridin-2-yl}-(2,4,6-trimethylphenyl)-amine]
≥ 7.00 | 148 to 150 |  | COc1ccccc1COc1ccc(S(=O)(=O)c2ccc(C)nc2Nc2c(C)cc(C)cc2C)cc1 [Example 27, {3-[4-(2-Methoxybenzyloxy)-benzenesulfonyl]-6-methylpyridin-2-yl}-(2,4,6-trimethylphenyl)-amine]
 | 62 to 66 | d | COc1ccccc1COc1ccc(S(=O)(=O)c2ccc(C)nc2Nc2cc(OC)c(OC)cc2C)cc1 [Example 4, (4,5-Dimethoxy-2-methylphenyl)-{3-[4-(2-methoxybenzyloxy)-benzenesulfonyl]-6-methylpyridin-2-yl}-amine]
≥ 7.00 | 222 to 225 |  | Cc1cc(C)c(Nc2nc(C)ccc2S(=O)(=O)c2ccc(C(=O)c3ccccc3)cc2)c(C)c1 [Example 54, {4-[6-Methyl-2-(2,4,6-trimethylphenylamino)-pyridine-3-sulfonyl]-phenyl}-phenyl-methanone]
6.30 to 7.00 | 115 to 116 |  | Cc1cc(C)c(Nc2nc(C)ccc2S(=O)(=O)c2ccc(OCCCCC#N)cc2)c(C)c1 [Example 15, 5-{4-[6-Methyl-2-(2,4,6-trimethylphenylamino)-pyridine-3-sulfonyl]-phenoxy}-pentanenitrile]
 | 157 to 159 | d | CCOc1ccc(S(=O)(=O)c2ccc(C)nc2Nc2c(C)cc(C)cc2C)cc1 [Example 12, [3-(4-Ethoxybenzenesulfonyl)-6-methylpyridin-2-yl]-(2,4,6-trimethylphenyl)-amine]
